Results as given in patent publication US6355799B1, “Substituted benzene compounds, process for their preparation, and herbicidal and defoliant compositions containing them” (ISK Americas Incorporated, priority 1997, dated 2002).

What was measured:
Assay type in all cases: in vivo
[1] = test system: ivyleaf morningglory (Ipomoea hederacea, IPOHE); assay: Post-emerge test, greenhouse herbicide activity screening; settings: post-emerge, 14 days after application, rating scale 0-100
Text: (§1) A standard greenhouse herbicide activity screening system was used to evaluate the herbicidal efficacy and crop safety of these test compounds. Seven broadleaf weed species including redroot pigweed (Amaranthus retroflexus, AMARE, velvetleaf (Abutilon theophrasti, ABUTH), sicklepod (Cassia obtusifolia, CASOB), ivyleaf morningglory (Ipomoea hederacea, IPOHE), lambsquarters (Chenopodium album, CHEAL), common ragweed (Ambrosia artemisizfolia L., AMBEL), and cocklebur (Xanthium strumarium, XANST) were used as test species. Four grass weed species including green foxtail (Setaria viridis, SETVI), barnyardgrass (Echinochloa crus-galli, ECHCG), johnsongrass (Sorghum halepense, SORHA), and large crabgrass (Digitaria sanguinalis, DIGSA) were also used. In addition, three crop species, field corn (Zea mays L., var. Dekalb 535, CORN), soybean (Glycine max L., var. Pella 86, SOY), and is upland rice (Oryza sp., var. Tebonnet, RICE) were included.
(§2) All plants were grown in 10 cm square plastic pots which were filled with a sandy loam soil mix. For pre-emerge tests, seeds were planted one day prior to application of the test compounds. For post-emerge tests, seeds were planted 8-21 days prior to the test to allow emergence and good foliage development prior to application of the test substances. At the time of the post-emerge application, plants of all species were usually at the 2-3 leaf stage of development.
(§3) All test compounds Were dissolved in acetone and applied to the test units in a volume of 187 l /ha. Test materials were applied at rates ranging from 15 g ai/ha to 1000 g ai/ha using a track sprayer equipped with a TJ8001E even flow flat fan spray nozzle. Plants were arranged on a shelf so that the top of the canopy (post-emerge) or top of the soil surface (pre-emerge) was 40-45 cm below the nozzle. Pressurized air was used to force the test solution through the nozzle as it was mechanically advanced (via electrically driven chain drive) over the top of all test plants/pots. This application simulates a typical commercial field herbicide application.
(§4) In the post-emerge test, a commercial non-ionic surfactant was also included (0.25% v/v) to enhance wetting of the leaf surfaces of target plants. Immediately after application, test units of the pre-emerge applications were watered at the soil surface to incorporate the test materials. Subsequently, these test units were bottom-watered. Post-emerge test units were always bottom-watered.
(§5) At 14 days after application of the test materials, phytotoxicity ratings were recorded. A rating scale of 0-100 was used as previously described in Research Methods in Weed Science, 2nd edition, B. Truelove, Ed., Southern Weed Science Society, Auburn University, Auburn, Ala. 1977. Briefly, “0” corresponds to no damage and “100” corresponds to complete death of all plants in the test unit. This scale was used both to determine efficacy against weed species and damage to crop species. Herbicide activity data for various compounds of this invention, which are shown by compound No. in Tables 1-8, are shown in Tables 11 and 12.

[2] = test system: sicklepod (Cassia obtusifolia, CASOB); assay: as above; settings: post-emerge, 14 days after application, rating scale 0-100
Text: as §1, §2, §3, §4, §5

[3] = test system: redroot pigweed (Amaranthus retroflexus, AMARE); assay: as above; settings: post-emerge, 14 days after application
Text: as §1, §2, §3, §4, §5

[4] = test system: large crabgrass (Digitaria sanguinalis, DIGSA); assay: as above; settings: post-emerge, 14 days after application, rating scale 0-100
Text: as §1, §2, §3, §4, §5

[5] = test system: barnyardgrass (Echinochloa crus-galli, ECHCG); assay: as above; settings: post-emerge, 14 days after application, rating scale 0-100
Text: as §1, §2, §3, §4, §5

[6] = test system: velvetleaf (Abutilon theophrasti, ABUTH); assay: as above; settings: post-emerge, 14 days after application, rating scale 0-100
Text: as §1, §2, §3, §4, §5

[7] = test system: lambsquarters (Chenopodium album, CHEAL); assay: as above; settings: post-emerge, 14 days after application, rating scale 0-100
Text: as §1, §2, §3, §4, §5

[8] = test system: green foxtail (Setaria viridis, SETVI); assay: as above; settings: post-emerge, 14 days after application, rating scale 0-100
Text: as §1, §2, §3, §4, §5

[9] = test system: redroot pigweed (Amaranthus retroflexus, AMARE); assay: Pre-emerge test, greenhouse herbicide activity screening; settings: for phytotoxicity rating AMARE: pre-emerge, 14 days after application, scale 0-100; for Pre-emerge Herbicidal Activity AMARE: phytotoxicity rating 0-100, 14 days after application
How it was run: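 Herbicidal damage is scored 0 (none) to 100 (complete plant death) two weeks after a simulated field spray. Rates span 15–1000 g ai/ha, delivered in acetone at 187 l/ha. For post-emergence treatments, plants have 2–3 leaves and the spray carries 0.25% v/v non-ionic surfactant.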

[10] = test system: upland rice (Oryza sp., var. Tebonnet, RICE); assay: Pre-emerge test, crop safety; settings: for phytotoxicity rating RICE (crop damage): pre-emerge, 14 days after application, scale 0-100; for Pre-emerge Herbicidal Activity RICE: crop damage rating 0-100, 14 days after application
How it was run: (§6)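 Sandy loam pots; pre-emerge: sown 1 d pre-spray, surface-watered after, then bottom-watered. Post-emerge: sown 8–21 d before, 2–3 leaf stage, + 0.25% v/v NIS, bottom-watered. Acetone, 187 l/ha track spray, 15–1000 g ai/ha. 0–100 injury score, day 14.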

[11] = test system: field corn (Zea mays L., var. Dekalb 535, CORN); assay: Pre-emerge test, crop safety; settings: for phytotoxicity rating CORN (crop damage): pre-emerge, 14 days after application, scale 0-100; for Pre-emerge Herbicidal Activity CORN: crop damage rating 0-100, 14 days after application
How it was run: as §6

[12] = test system: upland rice (Oryza sp., var. Tebonnet, RICE); assay: Post-emerge test, crop safety; settings: post-emerge, 14 days after application, rating scale 0-100
How it was run: (§7)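 Plants grown in 10 cm pots of sandy loam mix received acetone-dissolved compounds through a moving flat-fan nozzle. Doses ranged from 15 to 1000 g ai/ha. Pre-emerge pots were seeded one day earlier, post-emerge pots 8–21 days earlier. Fourteen days on, each pot was graded 0–100 for damage.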

[13] = test system: field corn (Zea mays L., var. Dekalb 535, CORN); assay: Post-emerge test, crop safety; settings: post-emerge, 14 days after application, rating scale 0-100
How it was run: as §7

[14] = test system: ivyleaf morningglory (Ipomoea hederacea, IPOHE); assay: Pre-emerge test, greenhouse herbicide activity screening; settings: for phytotoxicity rating IPOHE: pre-emerge, 14 days after application, scale 0-100; for Pre-emerge Herbicidal Activity IPOHE: phytotoxicity rating 0-100, 14 days after application
Text: as §1, §2, §3, §4, §5

[15] = test system: sicklepod (Cassia obtusifolia, CASOB); assay: as above; settings: for phytotoxicity rating CASOB: pre-emerge, 14 days after application, scale 0-100; for Pre-emerge Herbicidal Activity CASOB: phytotoxicity rating 0-100, 14 days after application
Text: as §1, §2, §3, §4, §5

[16] = test system: large crabgrass (Digitaria sanguinalis, DIGSA); assay: as above; settings: for phytotoxicity rating DIGSA: pre-emerge, 14 days after application, scale 0-100; for Pre-emerge Herbicidal Activity DIGSA: phytotoxicity rating 0-100, 14 days after application
Text: as §1, §2, §3, §4, §5

[17] = test system: barnyardgrass (Echinochloa crus-galli, ECHCG); assay: as above; settings: for phytotoxicity rating ECHCG: pre-emerge, 14 days after application, scale 0-100; for Pre-emerge Herbicidal Activity ECHCG: phytotoxicity rating 0-100, 14 days after application
Text: as §1, §2, §3, §4, §5

[18] = test system: velvetleaf (Abutilon theophrasti, ABUTH); assay: as above; settings: for phytotoxicity rating ABUTH: pre-emerge, 14 days after application, scale 0-100; for Pre-emerge Herbicidal Activity ABUTH: phytotoxicity rating 0-100, 14 days after application
Text: as §1, §2, §3, §4, §5

[19] = test system: lambsquarters (Chenopodium album, CHEAL); assay: as above; settings: for phytotoxicity rating CHEAL: pre-emerge, 14 days after application, scale 0-100; for Pre-emerge Herbicidal Activity CHEAL: phytotoxicity rating 0-100, 14 days after application
Text: as §1, §2, §3, §4, §5

[20] = test system: green foxtail (Setaria viridis, SETVI); assay: as above; settings: for phytotoxicity rating SETVI: pre-emerge, 14 days after application, scale 0-100; for Pre-emerge Herbicidal Activity SETVI: phytotoxicity rating 0-100, 14 days after application
Text: as §1, §2, §3, §4, §5

[21] = 250 g ai/ha, rating scale 0-100

COc1c(Cl)cc(F)c(-n2c(=O)cc(C(F)(F)F)n(C)c2=O)c1NC(=O)CCc1ccccc1C [2-129]
IPOHE phytotoxicity rating ([1]; 63 g ai/ha): 100
IPOHE phytotoxicity rating ([1]; 250 g ai/ha): 100
CASOB phytotoxicity rating ([2]; 63 g ai/ha): 80
CASOB phytotoxicity rating ([2]; 250 g ai/ha): 100
AMARE phytotoxicity rating ([3]; 63 g ai/ha, rating scale 0-100): 100
AMARE phytotoxicity rating [3, 21]: 100
DIGSA phytotoxicity rating ([4]; 63 g ai/ha): 30
DIGSA phytotoxicity rating ([4]; 250 g ai/ha): 70
ECHCG phytotoxicity rating ([5]; 63 g ai/ha): 30
ECHCG phytotoxicity rating ([5]; 250 g ai/ha): 50
ABUTH phytotoxicity rating ([6]; 63 g ai/ha): 100
ABUTH phytotoxicity rating ([6]; 250 g ai/ha): 100
CHEAL phytotoxicity rating ([7]; 63 g ai/ha): 100
CHEAL phytotoxicity rating ([7]; 250 g ai/ha): 100
SETVI phytotoxicity rating ([8]; 63 g ai/ha): 80
SETVI phytotoxicity rating ([8]; 250 g ai/ha): 90
phytotoxicity rating AMARE ([9]; 63 g ai/ha): 90
phytotoxicity rating AMARE ([9]; 250 g ai/ha): 100
phytotoxicity rating RICE (crop damage) ([10]; 63 g ai/ha): 40
phytotoxicity rating RICE (crop damage) ([10]; 250 g ai/ha): 80
phytotoxicity rating CORN (crop damage) ([11]; 63 g ai/ha): 50
phytotoxicity rating CORN (crop damage) ([11]; 250 g ai/ha): 90
RICE phytotoxicity rating (crop damage) ([12]; 63 g ai/ha): 35
RICE phytotoxicity rating (crop damage) ([12]; 250 g ai/ha): 75
CORN phytotoxicity rating (crop damage) ([13]; 63 g ai/ha): 70
CORN phytotoxicity rating (crop damage) ([13]; 250 g ai/ha): 100
phytotoxicity rating IPOHE ([14]; 63 g ai/ha): 50
phytotoxicity rating IPOHE ([14]; 250 g ai/ha): 70
phytotoxicity rating CASOB ([15]; 63 g ai/ha): 60
phytotoxicity rating CASOB ([15]; 250 g ai/ha): 90
phytotoxicity rating DIGSA ([16]; 63 g ai/ha): 60
phytotoxicity rating DIGSA ([16]; 250 g ai/ha): 100
phytotoxicity rating ECHCG ([17]; 63 g ai/ha): 30
phytotoxicity rating ECHCG ([17]; 250 g ai/ha): 80
phytotoxicity rating ABUTH ([18]; 63 g ai/ha): 100
phytotoxicity rating ABUTH ([18]; 250 g ai/ha): 100
phytotoxicity rating CHEAL ([19]; 63 g ai/ha): 100
phytotoxicity rating CHEAL ([19]; 250 g ai/ha): 100
phytotoxicity rating SETVI ([20]; 63 g ai/ha): 90
phytotoxicity rating SETVI ([20]; 250 g ai/ha): 100

COc1c(Cl)cc(F)c(-n2c(=O)cc(C(F)(F)F)n(C)c2=O)c1NC(=O)OCc1ccc(C(F)(F)F)cc1 [4-43]
phytotoxicity rating IPOHE ([1]; 63 g ai/ha): 40
phytotoxicity rating IPOHE ([1]; 250 g ai/ha): 40
phytotoxicity rating CASOB ([2]; 63 g ai/ha): 50
phytotoxicity rating CASOB ([2]; 250 g ai/ha): 60
phytotoxicity rating AMARE ([3]; 63 g ai/ha, rating scale 0-100 (0 no damage, 100 complete death)): 70
phytotoxicity rating AMARE [3, 21]: 100
phytotoxicity rating DIGSA ([4]; 63 g ai/ha): 0
phytotoxicity rating DIGSA ([4]; 250 g ai/ha): 0
phytotoxicity rating ECHCG ([5]; 63 g ai/ha): 0
phytotoxicity rating ECHCG ([5]; 250 g ai/ha): 10
phytotoxicity rating ABUTH ([6]; 63 g ai/ha): 60
phytotoxicity rating ABUTH ([6]; 250 g ai/ha): 100
phytotoxicity rating CHEAL ([7]; 63 g ai/ha): 80
phytotoxicity rating CHEAL ([7]; 250 g ai/ha): 90
phytotoxicity rating SETVI ([8]; 63 g ai/ha): 0
phytotoxicity rating SETVI ([8]; 250 g ai/ha): 40
Pre-emerge Herbicidal Activity AMARE ([9]; 63 g ai/ha): 10
Pre-emerge Herbicidal Activity AMARE ([9]; 250 g ai/ha): 60
Pre-emerge Herbicidal Activity RICE ([10]; 63 g ai/ha): 0
Pre-emerge Herbicidal Activity RICE ([10]; 250 g ai/ha): 10
Pre-emerge Herbicidal Activity CORN ([11]; 63 g ai/ha): 0
Pre-emerge Herbicidal Activity CORN ([11]; 250 g ai/ha): 0
phytotoxicity rating RICE (crop damage) ([12]; 63 g ai/ha): 0
phytotoxicity rating RICE (crop damage) ([12]; 250 g ai/ha): 0
phytotoxicity rating CORN (crop damage) ([13]; 63 g ai/ha): 0
phytotoxicity rating CORN (crop damage) ([13]; 250 g ai/ha): 10
Pre-emerge Herbicidal Activity IPOHE ([14]; 63 g ai/ha): 0
Pre-emerge Herbicidal Activity IPOHE ([14]; 250 g ai/ha): 10
Pre-emerge Herbicidal Activity CASOB ([15]; 63 g ai/ha): 0
Pre-emerge Herbicidal Activity CASOB ([15]; 250 g ai/ha): 40
Pre-emerge Herbicidal Activity DIGSA ([16]; 63 g ai/ha): 0
Pre-emerge Herbicidal Activity DIGSA ([16]; 250 g ai/ha): 60
Pre-emerge Herbicidal Activity ECHCG ([17]; 63 g ai/ha): 0
Pre-emerge Herbicidal Activity ECHCG ([17]; 250 g ai/ha): 10
Pre-emerge Herbicidal Activity ABUTH ([18]; 63 g ai/ha): 20
Pre-emerge Herbicidal Activity ABUTH ([18]; 250 g ai/ha): 50
Pre-emerge Herbicidal Activity CHEAL ([19]; 63 g ai/ha): 30
Pre-emerge Herbicidal Activity CHEAL ([19]; 250 g ai/ha): 80
Pre-emerge Herbicidal Activity SETVI ([20]; 63 g ai/ha): 0
Pre-emerge Herbicidal Activity SETVI ([20]; 250 g ai/ha): 70
